Source: patent US20090155209A1, “NOVEL MACROCYCLIC INHIBITORS OF HEPATITIS C VIRUS REPLICATION” (priority 2007, published 2009)

Legend:
[1] = molecular target: T1, NS3-NS4 (Hepatitis C virus genotype 1a, UniProt P27958); experiment: NS3-NS4 activity, IC50 (Example 37, Table 8); format: biochemical
[2] = molecular target: T1, NS3-NS4; experiment: cell-based; details: EC50, NS3-NS4 activity

T1 sequence (P27958 1027-1657): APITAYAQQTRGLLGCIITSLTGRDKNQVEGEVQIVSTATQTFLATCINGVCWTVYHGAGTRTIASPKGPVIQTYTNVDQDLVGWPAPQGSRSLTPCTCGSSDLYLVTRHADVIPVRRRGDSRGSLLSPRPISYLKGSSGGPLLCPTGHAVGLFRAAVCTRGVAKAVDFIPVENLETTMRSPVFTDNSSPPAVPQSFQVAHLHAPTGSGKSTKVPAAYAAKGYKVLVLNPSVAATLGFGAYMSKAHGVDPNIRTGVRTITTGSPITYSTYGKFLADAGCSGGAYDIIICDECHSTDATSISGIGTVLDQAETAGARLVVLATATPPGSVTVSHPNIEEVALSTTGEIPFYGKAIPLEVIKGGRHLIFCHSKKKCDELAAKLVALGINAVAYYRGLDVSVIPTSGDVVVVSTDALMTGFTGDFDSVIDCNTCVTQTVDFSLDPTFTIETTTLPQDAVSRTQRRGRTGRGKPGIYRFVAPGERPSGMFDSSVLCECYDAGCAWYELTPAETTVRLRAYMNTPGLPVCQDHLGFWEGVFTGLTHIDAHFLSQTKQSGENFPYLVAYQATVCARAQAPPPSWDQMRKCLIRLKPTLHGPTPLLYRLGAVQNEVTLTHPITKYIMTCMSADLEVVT
T1 sequence (P27958 1658-1711): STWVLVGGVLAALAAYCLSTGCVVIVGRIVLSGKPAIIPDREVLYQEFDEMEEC

Compound	IC50 [1] [nM]	EC50 [2] [nM]
CC(C)(C)COC(=O)N[C@H]1CCCCC/C=C\[C@@H]2C[C@@]2(C(=O)NS(=O)(=O)c2cc(Cl)sc2Cl)NC(=O)[C@@H]2C[C@@H](OC(=O)N3Cc4cccc(F)c4C3)CN2C1=O [Compound 343]	< 100	< 100
COCC1(S(=O)(=O)NC(=O)[C@@]23C[C@H]2CCCCCCC[C@H](NC(=O)OC(C)(C)C)C(=O)N2C[C@H](OC(=O)N4Cc5cccc(F)c5C4)C[C@H]2C(=O)N3)CC1 [Compound 652]	< 100	< 100
CCCC1(S(=O)(=O)NC(=O)[C@@]23C[C@H]2CCCCCCC[C@H](NC(=O)OC(C)(C)C)C(=O)N2C[C@H](OC(=O)N4Cc5cccc(F)c5C4)C[C@H]2C(=O)N3)CC1 [Compound 651]	< 100	< 100
CC(C)(C)OC(=O)N[C@H]1CCCCC/C=C\[C@@H]2C[C@@]2(C(=O)NOCCO)NC(=O)[C@@H]2C[C@@H](OC(=O)N3Cc4cccc(F)c4C3)CN2C1=O [Compound 106]	< 100	100 to 1000
O=C1N[C@]2(C(=O)NS(=O)(=O)C3CC3)C[C@H]2/C=C\CCCCC[C@H](Nc2nc(-c3ccc(F)cn3)cs2)C(=O)N2C[C@H](OC(=O)N3Cc4cccc(Cl)c4C3)C[C@@H]12 [Compound 228]	< 100	< 100
CC(C)(C)OC(=O)N[C@H]1CCCCCCC[C@@H]2C[C@@]2(C(=O)NS(=O)(=O)c2ccc(Cl)cc2)NC(=O)[C@@H]2C[C@@H](OC(=O)N3Cc4cccc(F)c4C3)CN2C1=O [Compound 604]	< 100	< 100
CC(C)(C)OC(=O)N[C@H]1CCOCC/C=C\[C@@H]2C[C@@]2(C(=O)NS(=O)(=O)c2ccc(Cl)cc2)NC(=O)[C@@H]2C[C@@H](OC(=O)N3Cc4cccc(Cl)c4C3)CN2C1=O [Compound 324, (2R,6S,13aS,14aR,16aSZ)-6-(tert-butoxycarbonylamino)-14a-(4-chlorophenylsulfonylcarbamoyl)-5,16-dioxo-2,3,5,6,7,8,10,11,13a,14,14a,15,16,16a-tetradecahydro-1H-cyclopropa[j]pyrrolo[1,2-f][1,6,9]oxadiazacyclopentadecin-2-yl 4-chloroisoindoline-2-carboxylate]	< 100	< 100
O=C(N[C@H]1CCCCC/C=C\[C@@H]2C[C@@]2(C(=O)NS(=O)(=O)C2CC2)NC(=O)[C@@H]2C[C@@H](OC(=O)N3Cc4cccc(F)c4C3)CN2C1=O)c1ccc(Cl)cc1 [Compound 413]	< 100	< 100
O=C(N[C@H]1CCCCC/C=C\[C@@H]2C[C@@]2(C(=O)NS(=O)(=O)C2CC2)NC(=O)[C@@H]2C[C@@H](OC(=O)N3Cc4cccc(F)c4C3)CN2C1=O)OCC1CC1 [Compound 434]	< 100	< 100
C=CCC1(S(=O)(=O)NC(=O)[C@@]23C[C@H]2/C=C\CCCCC[C@H](NC(=O)OC(C)(C)C)C(=O)N2C[C@H](OC(=O)N4Cc5cccc(F)c5C4)C[C@H]2C(=O)N3)CC1 [Compound 543]	< 100	< 100
CN(C(=O)N[C@H]1CCCCC/C=C\[C@@H]2C[C@@]2(C(=O)NS(=O)(=O)C2CC2)NC(=O)[C@@H]2C[C@@H](OC(=O)N3Cc4cccc(F)c4C3)CN2C1=O)C(C)(C)C [Compound 407, (2R,6S,13aS,14aR,16aS,Z)-6-(3-tert-butyl-3-methylureido)-14a-(cyclopropylsulfonylcarbamoyl)-5,16-dioxo-1,2,3,5,6,7,8,9,10,11,13a,14,14a,15,16,16a-hexadecahydrocyclopropa[e]pyrrolo[1,2-a][1,4]diazacyclopentadecin-2-yl 4-fluoroisoindoline-2-carboxylate]	< 100	< 100
CC(C)(C)OC(=O)N[C@H]1CCCCC/C=C\[C@@H]2C[C@@]2(C(=O)NS(=O)(=O)Cc2c(Cl)cccc2Cl)NC(=O)[C@@H]2C[C@@H](OC(=O)N3Cc4cccc(F)c4C3)CN2C1=O [Compound 527]	< 100	< 100
CC(C)(C)OC(=O)N[C@H]1CCCCC[C@H]2C[C@H]2[C@@H]2C[C@@]2(C(=O)NS(=O)(=O)C2(C)CC2)NC(=O)[C@@H]2C[C@@H](OC(=O)N3Cc4cccc(F)c4C3)CN2C1=O [Compound 903]	< 100	< 100
Cc1cccc(S(=O)(=O)NC(=O)[C@@]23C[C@H]2/C=C\CCCCC[C@H](NC(=O)OC(C)(C)C)C(=O)N2C[C@H](OC(=O)N4Cc5cccc(F)c5C4)C[C@H]2C(=O)N3)c1 [Compound 317]	< 100	< 100
O=C1N[C@]2(C(=O)NS(=O)(=O)C3CC3)C[C@H]2/C=C\CCCCC[C@H](NC(=O)N2CCOCC2)C(=O)N2C[C@H](OC(=O)N3Cc4cccc(F)c4C3)C[C@@H]12 [Compound 414]	< 100	100 to 1000
CC(C)COC(=O)N[C@H]1CCCCC/C=C\[C@@H]2C[C@@]2(C(=O)NS(=O)(=O)c2ccc(Cl)cc2)NC(=O)[C@@H]2C[C@@H](OC(=O)N3Cc4cccc(F)c4C3)CN2C1=O [Compound 341]	< 100	< 100
CC(C)(C)OC(=O)N[C@H]1CCCCC/C=C\[C@@H]2C[C@@]2(C(=O)NOc2ccc(Cl)cc2)NC(=O)[C@@H]2C[C@@H](OC(=O)N3Cc4cccc(F)c4C3)CN2C1=O [Compound 707]	< 100	1000 to 10000

Compound	IC50 [1] [nM]	EC50 [2] [nM]
CC(C)(C)OC(=O)N[C@H]1CCCCC/C=C\[C@@H]2C[C@@]2(C(=O)NS(=O)(=O)c2ccccc2)NC(=O)[C@@H]2C[C@@H](OC(=O)N3Cc4cccc(F)c4C3)CN2C1=O [Compound 501]	< 100	< 100
O=C(N[C@H]1CCCCC/C=C\[C@@H]2C[C@@]2(C(=O)NS(=O)(=O)C2CC2)NC(=O)[C@@H]2C[C@@H](OC(=O)N3Cc4cccc(F)c4C3)CN2C1=O)OCC1CCC1 [Compound 430]	< 100	< 100
CC(C)(C)OC(=O)N[C@H]1CCCCC/C=C\[C@@H]2C[C@@]2(C(=O)NS(=O)(=O)c2ccc(F)cc2F)NC(=O)[C@@H]2C[C@@H](OC(=O)N3Cc4cccc(F)c4C3)CN2C1=O [Compound 310]	< 100	< 100
CC(C)(C)OC(=O)N[C@H]1CCCCC/C=C\[C@@H]2C[C@@]2(C(=O)NS(=O)(=O)c2cc(Cl)ccc2F)NC(=O)[C@@H]2C[C@@H](OC(=O)N3Cc4cccc(F)c4C3)CN2C1=O [Compound 314]	< 100	< 100
CC(C)(C)OC(=O)N[C@H]1CCCCC/C=C\[C@@H]2C[C@@]2(C(=O)NS(=O)(=O)c2ccccc2C(F)(F)F)NC(=O)[C@@H]2C[C@@H](OC(=O)N3Cc4cccc(F)c4C3)CN2C1=O [Compound 345]	< 100	< 100
O=C1N[C@]2(C(=O)NS(=O)(=O)C3CC3)C[C@H]2/C=C\CCCCC[C@H](NC(=O)N2Cc3ccccc3C2)C(=O)N2C[C@H](OC(=O)N3Cc4cccc(F)c4C3)C[C@@H]12 [Compound 422]	< 100	100 to 1000
CC(C)(C)OC(=O)N[C@H]1CCCCC/C=C\[C@@H]2C[C@@]2(C(=O)NOCc2ccc(C(F)(F)F)cc2)NC(=O)[C@@H]2C[C@@H](OC(=O)N3Cc4cccc(F)c4C3)CN2C1=O [Compound 105, (2R,6S,13aS,14aR,16aS,Z)-6-(tert-butoxycarbonylamino)-5,16-dioxo-14a-(4-(trifluoromethyl)benzyloxycarbamoyl)-1,2,3,5,6,7,8,9,10,11,13a,14,14a,15,16,16a-hexadecahydrocyclopropa[e]pyrrolo[1,2-a][1,4]diazacyclopentadecin-2-yl 4-fluoroisoindoline-2-carboxylate]	< 100	10000 to 50000
Cc1ccc(C)c(CS(=O)(=O)NC(=O)[C@@]23C[C@H]2CCCCCCC[C@H](NC(=O)OC(C)(C)C)C(=O)N2C[C@H](OC(=O)N4Cc5cccc(F)c5C4)C[C@H]2C(=O)N3)c1 [Compound 629]	< 100	< 100
CC(C)(C)OC(=O)N[C@H]1CCCCC/C=C\[C@@H]2C[C@@]2(C(=O)NS(=O)(=O)Cc2cccc(Cl)c2)NC(=O)[C@@H]2C[C@@H](OC(=O)N3Cc4cccc(F)c4C3)CN2C1=O [Compound 511]	< 100	< 100
CC(C)(C)COC(=O)N[C@H]1CCCCC/C=C\[C@@H]2C[C@@]2(C(=O)NS(=O)(=O)C2CC2)NC(=O)[C@@H]2C[C@@H](OC(=O)N3Cc4cccc(F)c4C3)CN2C1=O [Compound 406, (2R,6S,13aS,14aR,16aS,Z)-14a-(cyclopropylsulfonylcarbamoyl)-6-(neopentyloxycarbonylamino)-5,16-dioxo-1,2,3,5,6,7,8,9,10,11,13a,14,14a,15,16,16a-hexadecahydrocyclopropa[e]pyrrolo[1,2-a][1,4]diazacyclopentadecin-2-yl 4-fluoroisoindoline-2-carboxylate]	< 100	< 100
CC(C)(C)OC(=O)N[C@H]1CCCCC[C@@H]2C[C@@H]2[C@@H]2C[C@@]2(C(=O)NS(=O)(=O)C2CC2)NC(=O)[C@@H]2C[C@@H](OC(=O)N3Cc4cccc(F)c4C3)CN2C1=O [Compound 902]	< 100	< 100
O=C1N[C@]2(C(=O)NS(=O)(=O)C3CC3)C[C@H]2/C=C\CCCCC[C@H](NC(=O)N2CCC(F)(F)C2)C(=O)N2C[C@H](OC(=O)N3Cc4cccc(F)c4C3)C[C@@H]12 [Compound 416]	< 100	100 to 1000
CC(=O)O[C@@H]1C[C@H]2C(=O)N[C@]3(C(=O)NS(=O)(=O)C4CC4)C[C@H]3/C=C\CCCCC[C@H](Nc3nc(-c4ccc(F)cc4)c(C)s3)C(=O)N2C1 [Compound 239]	< 100	100 to 1000
Cc1ccc(C)c(ONC(=O)[C@@]23C[C@H]2CCCCCCC[C@H](NC(=O)OC(C)(C)C)C(=O)N2C[C@H](OC(=O)N4Cc5cccc(F)c5C4)C[C@H]2C(=O)N3)c1 [Compound 806]	< 100	1000 to 10000
COc1cccc(ONC(=O)[C@@]23C[C@H]2/C=C\CCCCC[C@H](NC(=O)OC(C)(C)C)C(=O)N2C[C@H](OC(=O)N4Cc5cccc(F)c5C4)C[C@H]2C(=O)N3)c1 [Compound 708]	< 100	1000 to 10000
CC(C)(C)OC(=O)N[C@H]1CCCCC/C=C\[C@@H]2C[C@@]2(C(=O)NS(=O)(=O)c2ccc(C(F)(F)F)cc2)NC(=O)[C@@H]2C[C@@H](OC(=O)N3Cc4cccc(F)c4C3)CN2C1=O [Compound 347]	< 100	< 100
